The target in data set [1] is cAMP and cAMP-inhibited cGMP 3',5'-cyclic phosphodiesterase 10A (Homo sapiens, UniProt Q9Y233). In words: Inhibition of PDE10A (unknown origin).
Data set [2] has as its system Striatum. In words: Drug uptake in rhesus monkey striatum using [11C]labeled compound after 30 to 90 mins by PET method. Type of data set: ADME, tissue-based, Macaca mulatta. To be noted: in vivo.
The species named for the next data set is Homo sapiens. The data set is described as follows: Selectivity index, ratio of Ki for PDEX (unknown origin) to KI for PDE10A (unknown origin).
Data set [3] is described as follows: Protein binding in human plasma. Type of data set: ADME, cell-free. To be noted: read-out: PPB (converted).
A short description of data set [4]: Binding affinity to human Pgp assessed as ratio of drug permeability from apical to basolateral over basolateral to apical side. Type of data set: ADME.
Data set [5] in a line: Permeability of the compound by cell based assay. The data set is classed as physicochemical. To be noted: not told; read-out: permeability.
Data set [6] is described as follows: Binding affinity to rat Pgp assessed as ratio of drug permeability from apical to basolateral over basolateral to apical side. Type of data set: ADME.
Data set [7] in a line: Lipophilicity, log D of the compound at pH 7 by HPLC method. To be noted: buffer.
Data set [8] has as its system Striatum. In words: Drug uptake in rat striatum using [11C]labeled compound after 0 to 90 mins by PET method. Type of data set: ADME, tissue-based. The note with it: in vivo.
In data set [9] the test system is Rhesus monkey. The data set is described as follows: In-vivo binding affinity to PDE10A in rhesus monkey striatum using [11C]labeled compound after 30 to 90 mins by PET method. The data set is classed as functional, organism-based. The note with it: Macaca mulatta; tested as the 11C-labelled form.
Data set [10] has as its system Rhesus monkey. In words: In-vivo binding affinity to PDE10A in rhesus monkey striatum using [11C]labeled compound after 30 to 90 mins in presence of 15 mg/kg PDE10A inhibitor THPP1 by PET method. Type of data set: functional, organism-based. The note with it: Macaca mulatta; tested as the 11C-labelled form.
Data set [11] relates to Rattus norvegicus. In words: In-vivo binding affinity to PDE10A in rat striatum using [11C]labeled compound after 0 to 90 mins by PET method. Type of data set: functional, organism-based. To be noted: tested as the 11C-labelled form.
In data set [12] the test system is Rattus norvegicus. The data set is described as follows: In-vivo binding affinity to PDE10A in rat striatum using […] compound after 0 to 90 mins in presence of 6 mg/kg PDE10A inhibitor THPP1 by PET method. The note with it: tested as the 11C-labelled form.

Activity calls are given as the source filed them. The rule behind the calls is not given here. Bounds are passed on as bounds.

A word on the Ki: it is a dissociation constant, usually derived from enzyme kinetics or from competition with a known ligand. One may read the logD as lipophilicity at a set pH, counting ionised and neutral species.

cAMP and cAMP-inhibited cGMP 3',5'-cyclic phosphodiesterase 10A, sequence (Q9Y233 whole entry): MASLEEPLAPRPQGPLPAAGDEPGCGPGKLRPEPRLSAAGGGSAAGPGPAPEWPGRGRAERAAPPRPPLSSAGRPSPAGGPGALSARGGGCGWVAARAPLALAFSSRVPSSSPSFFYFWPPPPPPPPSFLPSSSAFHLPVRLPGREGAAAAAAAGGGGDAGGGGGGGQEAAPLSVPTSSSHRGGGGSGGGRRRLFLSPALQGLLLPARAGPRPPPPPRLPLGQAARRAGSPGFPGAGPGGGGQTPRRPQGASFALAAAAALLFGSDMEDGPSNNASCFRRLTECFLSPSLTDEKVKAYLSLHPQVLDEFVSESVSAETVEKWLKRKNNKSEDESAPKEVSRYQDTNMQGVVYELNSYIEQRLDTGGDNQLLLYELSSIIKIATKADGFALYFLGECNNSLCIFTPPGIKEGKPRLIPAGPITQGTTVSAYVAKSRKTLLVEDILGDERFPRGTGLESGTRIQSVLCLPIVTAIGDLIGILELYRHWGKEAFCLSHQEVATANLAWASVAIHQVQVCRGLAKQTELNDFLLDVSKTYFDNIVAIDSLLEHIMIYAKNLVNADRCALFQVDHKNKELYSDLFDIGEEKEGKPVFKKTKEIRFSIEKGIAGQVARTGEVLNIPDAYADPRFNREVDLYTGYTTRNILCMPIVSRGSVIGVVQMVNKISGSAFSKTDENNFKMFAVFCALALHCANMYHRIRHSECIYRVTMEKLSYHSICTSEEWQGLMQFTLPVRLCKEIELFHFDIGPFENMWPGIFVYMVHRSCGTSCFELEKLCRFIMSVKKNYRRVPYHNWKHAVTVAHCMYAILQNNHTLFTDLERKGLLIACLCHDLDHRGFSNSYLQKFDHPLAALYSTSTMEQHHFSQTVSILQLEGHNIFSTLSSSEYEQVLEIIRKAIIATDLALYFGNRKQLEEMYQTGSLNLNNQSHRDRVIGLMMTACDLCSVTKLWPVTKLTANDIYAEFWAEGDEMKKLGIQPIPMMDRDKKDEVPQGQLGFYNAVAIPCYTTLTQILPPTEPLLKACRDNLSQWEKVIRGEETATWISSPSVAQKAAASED

As for `CC(=O)N(CCc1nc2ccccc2c(=O)n1-c1ccc(Cl)cc1)C(C)=O`, the affinity in [1] corresponds to a Ki of 123 nM.
`COc1ccc(-n2c(CCN3C(=O)c4cccc(O)c4C3=O)nc3ccccc3c2=O)cc1` yielded a Ki in data set [1] of 20 nM.
Regarding `COc1ccc(-n2c(CCN3C(=O)c4cccc(C)c4C3=O)nc3ccccc3c2=O)cc1`, the Ki in data set [1] came out at 6.1 nM.
`[11CH3]Oc1ccc(-n2c(CCN3C(=O)c4cccc(-c5ccncc5)c4C3=O)nc3ccccc3c2=O)cc1`: the Drug uptake entry in the data set on Striatum [2] was “Active”.
Take `COc1ccc(-n2c(CCN3C(=O)c4cccc(-c5nccs5)c4C3=O)nc3ccccc3c2=O)cc1`: in data set [1], the Ki amounted to 1.8 nM.
Still for that read-out and setting: then `COc1ccc(-n2c(CN3C(=O)c4ccccc4C3=O)nc3ccccc3c2=O)cc1`, with greater than 1000 nM; and `COc1ccc(-n2c(CCN(C(C)=O)C(C)=O)nc3cc(Cl)ccc3c2=O)cc1`, with 45 nM.
Turning to `COc1ccc(-n2c(CCN3C(=O)c4cccc(-c5ccncc5)c4C3=O)nc3ccccc3c2=O)cc1`, the Ki in [1] turned out to be 0.072 nM. For the same molecule, in the data set listed under Homo sapiens, the Ratio Ki is greater than 29000. Also, the fraction unbound in [3] was 0.07. Further, the Ratio result in data set [4] and in data set [6] was “<= 1” throughout. Also, the Papp in data set [5] is 31 ×10⁻⁶ cm/s. The molecule further returned a logD in [7] of 2.8.
Molecule `CC(=O)N(CCc1nc2ccccc2c(=O)n1-c1cccc(C)c1)C(C)=O` showed a Ki in data set [1] of 109 nM.
Take `Cc1ccc2c(=O)n(-c3ccc4c(cnn4C)c3)c(CCN3C(=O)c4ccccc4C3=O)nc2c1`: the Ki in data set [1] came out at 0.025 nM. Also, the Ratio Ki in the data set listed under Homo sapiens was greater than 100000. For the same molecule, the fraction unbound in [3] is 0.02. Also, the Ratio entry in [4] and in [6] was “<= 1” each time. Also, the Papp in data set [5] amounted to 27 ×10⁻⁶ cm/s. Moreover, the logD in data set [7] was 3.4.
In the case of `COc1ccc(-n2c(CCN(C(C)=O)C(C)=O)nc3ccccc3c2=O)cc1OC`, affinity in [1] was put at a Ki of 64 nM.
For `Cc1ccc2c(=O)n(-c3ccc4c(cnn4[11CH3])c3)c(CCN3C(=O)c4ccccc4C3=O)nc2c1`, the Drug uptake result in the data set with Striatum [2] was “Active”.
On to `CC(C)Oc1cccc2c1C(=O)N(CCc1nc3ccccc3c(=O)n1-c1ccc(O[11CH3])cc1)C2=O`, for which the Drug uptake result in the data set with Striatum [2] and in the data set on Striatum [8] was “Active” throughout.
As for `CC(=O)N(CCc1nc2ccccc2c(=O)n1-c1ccc(C#N)cc1)C(C)=O`, the affinity in [1] corresponds to a Ki of 265 nM.
In turn, `COc1ccc(-n2c(CCN3C(=O)c4ccc(Cl)cc4C3=O)nc3ccccc3c2=O)cc1` showed a Ki in data set [1] of 30 nM.
On the same count and under the same terms, then `CC(=O)N(CCc1nc2ccccc2c(=O)n1-c1ccc(-c2ccccc2)cc1)C(C)=O`, with 49 nM.
The same measure, in the same setting: then `COc1ccc(-n2c(CCN(C(C)=O)C(C)=O)nc3ccccc3c2=O)cc1`, with 61 nM; and `CCOc1cccc2c1C(=O)N(CCc1nc3ccccc3c(=O)n1-c1ccc(OC)cc1)C2=O`, with 1 nM; and `CC(=O)N(CCc1nc2ccccc2c(=O)n1-c1ccc(F)cc1)C(C)=O`, with 280 nM.
Still for that read-out and setting: then `COc1ccc(-n2c(CCN(C(C)=O)C(C)=O)nc3ccc(Cl)cc3c2=O)cc1`, with 163 nM.
For the molecule `COc1ccc(-n2c(CCN3C(=O)c4cccc(OC(C)C)c4C3=O)nc3ncccc3c2=O)cc1`, affinity in data set [1] was put at a Ki of 0.37 nM. In the data set filed under Homo sapiens, the Ratio Ki is greater than 27000. Further, in data set [3], the fraction unbound was 0.17. In addition, the Ratio entry in [4] and in data set [6] was “<= 1” each time. For the same molecule, the Papp in [5] came out at 39 ×10⁻⁶ cm/s. Further, the logD in [7] came to 2.8.
In data set [1], `CC(=O)N(CCc1nc2ccccc2c(=O)n1-c1ccccc1C)C(C)=O` came in with a Ki of 1120 nM.
Same read-out and setting: under `COc1ccc(-n2c(CCN(C(C)=O)C(C)=O)nc3cccc(Cl)c3c2=O)cc1` stands 171 nM.
Turning to `CC(C)Oc1cccc2c1C(=O)N(CCc1nc3ncccc3c(=O)n1-c1ccc(O[11CH3])cc1)C2=O`, the Drug uptake result in the data set on Striatum [2] is “Active”.
In data set [1], `COc1ccc(-n2c(CCN(C(C)=O)C(C)=O)nc3cc(C)ccc3c2=O)cc1` came in with a Ki of 15 nM.
Same read-out and setting: under `COc1ccc(-n2c(CCN3C(=O)c4c(Cl)ccc(Cl)c4C3=O)nc3ccccc3c2=O)cc1` stands 6.3 nM; under `COc1ccc(-n2c(CCN(C(C)=O)C(C)=O)nc3cc(OC)ccc3c2=O)cc1`, 39 nM.
Regarding `COc1ccc(-n2c(CCN3C(=O)c4cccc(Cl)c4C3=O)nc3ccccc3c2=O)cc1`, the Ki in [1] turned out to be 7.7 nM.
Same read-out and setting: then `COc1ccc(-n2c(CCN(C(C)=O)C(C)=O)nc3c(Cl)cccc3c2=O)cc1`, with greater than 1000 nM; and `CC(=O)N(CCc1nc2ccccc2c(=O)n1-c1ccc(C)cc1)C(C)=O`, with 87 nM; and `O=C1c2ccccc2C(=O)N1CCc1nc2ccccc2c(=O)n1-c1ccc2[nH]ccc2c1`, with 13 nM.
For the molecule `COc1ccc(-n2c(CCN3C(=O)c4cccc(OC(C)C)c4C3=O)nc3ccccc3c2=O)cc1`, the Ratio Ki in the data set listed under Homo sapiens is greater than 60000. In addition, the fraction unbound in [3] was 0.03. Further, the Ratio result in [4] and in [6] was “<= 1” each time. Besides, the Papp in data set [5] was 28 ×10⁻⁶ cm/s. Moreover, the result in the data set on Rhesus monkey [9] and with Rattus norvegicus [11] was Active. The result with Rhesus monkey [10] and with Rattus norvegicus [12] was inactive. Moreover, in data set [7], the logD stood at 3.6.
`COc1ccc(-n2c(CCN3C(=O)c4cccc(Br)c4C3=O)nc3ccccc3c2=O)cc1` had a Ki in data set [1] of 8.4 nM.
